Reference: ChEMBL document CHEMBL4507315 (2021)

Key:
[1] = biological target: 5-hydroxytryptamine receptor 2C (Homo sapiens) (UniProt P28335); conditions: Compound concentration 10.0 uM
[2] = biological target: Dual serine/threonine and tyrosine protein kinase (Homo sapiens) (UniProt Q6XUX3); conditions: Compound concentration 100.0 nM
[3] = biological target: Calcium/calmodulin-dependent protein kinase type II subunit alpha (Homo sapiens) (UniProt Q9UQM7); conditions: Compound concentration 100.0 nM
[4] = biological target: Receptor-interacting serine/threonine-protein kinase 2 (Homo sapiens) (UniProt O43353); conditions: Compound concentration 100.0 nM
[5] = test system: Receptor-type tyrosine-protein kinase FLT3 (Homo sapiens), P36888 [UNDEFINED MUTATION]; conditions: Compound concentration 100.0 nM
[6] = biological target: Serine/threonine-protein kinase LATS1 (Homo sapiens) (UniProt O95835); conditions: Compound concentration 100.0 nM
[7] = biological target: Rho-associated protein kinase 1 (Homo sapiens) (UniProt Q13464); conditions: Compound concentration 100.0 nM
[8] = biological target: Serine/threonine-protein kinase D2 (Homo sapiens) (UniProt Q9BZL6); conditions: Compound concentration 100.0 nM
[9] = biological target: Muscarinic acetylcholine receptor M4 (Homo sapiens) (UniProt P08173); conditions: Compound concentration 10.0 uM
[10] = biological target: Delta-type opioid receptor (Homo sapiens) (UniProt P41143); conditions: Compound concentration 10.0 uM
Chain of Delta-type opioid receptor (Homo sapiens) (P41143 whole entry): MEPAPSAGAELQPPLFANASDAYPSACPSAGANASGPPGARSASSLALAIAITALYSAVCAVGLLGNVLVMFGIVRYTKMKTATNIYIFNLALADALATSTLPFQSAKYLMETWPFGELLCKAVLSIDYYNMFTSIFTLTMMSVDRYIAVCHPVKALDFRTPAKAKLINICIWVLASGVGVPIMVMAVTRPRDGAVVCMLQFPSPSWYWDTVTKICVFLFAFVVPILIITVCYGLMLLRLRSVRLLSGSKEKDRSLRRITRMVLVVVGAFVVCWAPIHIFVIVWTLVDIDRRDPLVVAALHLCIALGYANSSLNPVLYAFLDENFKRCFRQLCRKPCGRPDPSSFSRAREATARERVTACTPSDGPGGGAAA

[11] = biological target: Cyclin-dependent kinase 8 (Homo sapiens) (UniProt P49336); conditions: Compound concentration 100.0 nM
Chain of Cyclin-dependent kinase 8 (Homo sapiens) (P49336 whole entry): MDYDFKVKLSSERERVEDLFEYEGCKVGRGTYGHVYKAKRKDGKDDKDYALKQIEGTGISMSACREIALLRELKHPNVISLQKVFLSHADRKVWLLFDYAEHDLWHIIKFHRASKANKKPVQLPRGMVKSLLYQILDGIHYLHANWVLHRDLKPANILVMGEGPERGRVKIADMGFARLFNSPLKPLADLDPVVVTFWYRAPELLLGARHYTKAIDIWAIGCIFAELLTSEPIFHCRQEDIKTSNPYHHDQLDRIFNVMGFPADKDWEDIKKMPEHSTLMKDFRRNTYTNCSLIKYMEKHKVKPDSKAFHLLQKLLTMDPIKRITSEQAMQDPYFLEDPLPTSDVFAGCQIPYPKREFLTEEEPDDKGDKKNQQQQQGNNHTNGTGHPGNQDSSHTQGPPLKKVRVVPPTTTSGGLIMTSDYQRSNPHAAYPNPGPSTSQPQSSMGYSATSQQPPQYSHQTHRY

[12] = biological target: Glycogen synthase kinase-3 beta (Homo sapiens) (UniProt P49841); conditions: Compound concentration 100.0 nM
[13] = biological target: Serine/threonine-protein kinase PAK 2 (Homo sapiens) (UniProt Q13177); conditions: Compound concentration 100.0 nM
[14] = biological target: NUAK family SNF1-like kinase 2 (Homo sapiens) (UniProt Q9H093); conditions: Compound concentration 100.0 nM
[15] = biological target: Dual specificity mitogen-activated protein kinase kinase 6 (Homo sapiens) (UniProt P52564); conditions: Compound concentration 100.0 nM
[16] = test system: Phosphatidylinositol 4,5-bisphosphate 3-kinase catalytic subunit alpha isoform (Homo sapiens), P42336 [H1047L]; conditions: Compound concentration 100.0 nM
[17] = biological target: Beta-adrenergic receptor kinase 1 (Homo sapiens) (UniProt P25098); conditions: Compound concentration 100.0 nM
[18] = biological target: Tyrosine-protein kinase Tec (Homo sapiens) (UniProt P42680); conditions: Compound concentration 100.0 nM
[19] = biological target: Leukocyte tyrosine kinase receptor (Homo sapiens) (UniProt P29376); conditions: Compound concentration 100.0 nM
[20] = biological target: Myosin-IIIb (Homo sapiens) (UniProt Q8WXR4); conditions: Compound concentration 100.0 nM
[21] = biological target: Serine/threonine-protein kinase pim-3 (Homo sapiens) (UniProt Q86V86); conditions: Compound concentration 100.0 nM
[22] = biological target: Phosphatidylinositol 3-kinase catalytic subunit type 3 (Homo sapiens) (UniProt Q8NEB9); conditions: Compound concentration 100.0 nM
[23] = biological target: Dual specificity protein kinase CLK3 (Homo sapiens) (UniProt P49761); conditions: Compound concentration 100.0 nM
[24] = test system: Phosphatidylinositol 4,5-bisphosphate 3-kinase catalytic subunit alpha isoform (Homo sapiens), P42336 [E545K]; conditions: Compound concentration 100.0 nM
[25] = biological target: 5-hydroxytryptamine receptor 7 (Homo sapiens) (UniProt P34969); conditions: Compound concentration 10.0 uM
[26] = biological target: Tyrosine-protein kinase TXK (Homo sapiens) (UniProt P42681); conditions: Compound concentration 100.0 nM
[27] = biological target: Alpha-1A adrenergic receptor (Homo sapiens) (UniProt P35348); conditions: Compound concentration 10.0 uM
[28] = biological target: Receptor tyrosine-protein kinase erbB-4 (Homo sapiens) (UniProt Q15303); conditions: Compound concentration 100.0 nM
Chain of Receptor tyrosine-protein kinase erbB-4 (Homo sapiens) (Q15303 whole entry): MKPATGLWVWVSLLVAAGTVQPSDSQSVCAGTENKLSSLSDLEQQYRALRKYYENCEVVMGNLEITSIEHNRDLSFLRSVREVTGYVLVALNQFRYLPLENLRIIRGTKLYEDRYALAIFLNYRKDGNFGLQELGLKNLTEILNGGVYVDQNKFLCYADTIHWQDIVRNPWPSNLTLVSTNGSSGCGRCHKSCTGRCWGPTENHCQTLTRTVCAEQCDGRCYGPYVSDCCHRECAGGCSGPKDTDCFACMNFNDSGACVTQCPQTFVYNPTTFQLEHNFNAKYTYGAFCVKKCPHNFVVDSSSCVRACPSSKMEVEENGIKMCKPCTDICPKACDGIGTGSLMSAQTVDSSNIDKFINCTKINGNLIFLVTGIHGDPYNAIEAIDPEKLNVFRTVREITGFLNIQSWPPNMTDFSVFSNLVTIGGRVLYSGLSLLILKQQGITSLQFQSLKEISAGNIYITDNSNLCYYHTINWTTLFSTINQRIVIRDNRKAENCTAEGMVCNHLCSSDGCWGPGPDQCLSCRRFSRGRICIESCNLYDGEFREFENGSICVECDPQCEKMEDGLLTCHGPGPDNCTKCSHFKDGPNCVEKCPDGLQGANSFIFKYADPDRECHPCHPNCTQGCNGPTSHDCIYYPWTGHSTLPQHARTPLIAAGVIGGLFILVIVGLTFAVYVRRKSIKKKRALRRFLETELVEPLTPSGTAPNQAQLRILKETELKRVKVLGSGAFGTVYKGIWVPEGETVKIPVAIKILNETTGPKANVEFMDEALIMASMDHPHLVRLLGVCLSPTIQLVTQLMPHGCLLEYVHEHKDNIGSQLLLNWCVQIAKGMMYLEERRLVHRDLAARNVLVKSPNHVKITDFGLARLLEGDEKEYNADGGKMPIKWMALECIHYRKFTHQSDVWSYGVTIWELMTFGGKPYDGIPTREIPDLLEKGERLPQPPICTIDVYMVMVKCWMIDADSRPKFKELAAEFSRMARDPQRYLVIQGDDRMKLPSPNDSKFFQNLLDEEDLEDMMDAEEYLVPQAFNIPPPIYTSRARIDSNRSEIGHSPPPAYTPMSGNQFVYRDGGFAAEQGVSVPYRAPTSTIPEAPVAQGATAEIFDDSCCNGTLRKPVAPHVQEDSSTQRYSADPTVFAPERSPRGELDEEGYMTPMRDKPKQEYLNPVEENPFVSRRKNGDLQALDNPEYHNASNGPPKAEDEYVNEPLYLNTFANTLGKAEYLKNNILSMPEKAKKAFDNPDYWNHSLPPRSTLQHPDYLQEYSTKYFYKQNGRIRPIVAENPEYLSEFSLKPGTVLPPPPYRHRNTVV

[29] = biological target: Serine/threonine-protein kinase TNNI3K (Homo sapiens) (UniProt Q59H18); conditions: Compound concentration 100.0 nM
Chain of Serine/threonine-protein kinase TNNI3K (Homo sapiens) (Q59H18 whole entry): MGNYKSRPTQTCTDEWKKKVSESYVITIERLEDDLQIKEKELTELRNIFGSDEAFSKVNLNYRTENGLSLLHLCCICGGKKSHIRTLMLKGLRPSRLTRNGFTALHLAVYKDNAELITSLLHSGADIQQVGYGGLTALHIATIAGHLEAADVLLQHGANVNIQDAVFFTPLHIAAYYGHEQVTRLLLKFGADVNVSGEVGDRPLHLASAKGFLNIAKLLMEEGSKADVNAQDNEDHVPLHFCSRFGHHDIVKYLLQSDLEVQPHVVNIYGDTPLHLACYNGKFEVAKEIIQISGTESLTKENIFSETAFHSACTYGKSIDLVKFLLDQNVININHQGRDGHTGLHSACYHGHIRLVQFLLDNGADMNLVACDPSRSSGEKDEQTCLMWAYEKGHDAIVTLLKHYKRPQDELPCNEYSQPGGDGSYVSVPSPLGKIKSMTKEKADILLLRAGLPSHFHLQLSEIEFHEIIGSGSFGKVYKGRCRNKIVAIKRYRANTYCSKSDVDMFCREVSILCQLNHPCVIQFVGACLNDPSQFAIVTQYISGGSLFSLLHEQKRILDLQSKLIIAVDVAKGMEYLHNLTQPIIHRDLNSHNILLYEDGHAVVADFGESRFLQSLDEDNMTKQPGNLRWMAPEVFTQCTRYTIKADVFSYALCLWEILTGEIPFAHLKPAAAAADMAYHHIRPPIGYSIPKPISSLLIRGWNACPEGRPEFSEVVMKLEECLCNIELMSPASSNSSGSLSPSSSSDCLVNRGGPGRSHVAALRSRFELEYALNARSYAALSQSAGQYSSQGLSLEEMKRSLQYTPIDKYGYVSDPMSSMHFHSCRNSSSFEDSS

[30] = biological target: Tyrosine-protein kinase JAK2 (Homo sapiens) (UniProt O60674); conditions: Compound concentration 100.0 nM
[31] = biological target: Phosphatidylinositol 3-kinase C2 domain-containing subunit gamma (Homo sapiens) (UniProt O75747); conditions: Compound concentration 100.0 nM
[32] = biological target: Interleukin-1 receptor-associated kinase 1 (Homo sapiens) (UniProt P51617); conditions: Compound concentration 100.0 nM
Chain of Interleukin-1 receptor-associated kinase 1 (Homo sapiens) (P51617 whole entry, looked up): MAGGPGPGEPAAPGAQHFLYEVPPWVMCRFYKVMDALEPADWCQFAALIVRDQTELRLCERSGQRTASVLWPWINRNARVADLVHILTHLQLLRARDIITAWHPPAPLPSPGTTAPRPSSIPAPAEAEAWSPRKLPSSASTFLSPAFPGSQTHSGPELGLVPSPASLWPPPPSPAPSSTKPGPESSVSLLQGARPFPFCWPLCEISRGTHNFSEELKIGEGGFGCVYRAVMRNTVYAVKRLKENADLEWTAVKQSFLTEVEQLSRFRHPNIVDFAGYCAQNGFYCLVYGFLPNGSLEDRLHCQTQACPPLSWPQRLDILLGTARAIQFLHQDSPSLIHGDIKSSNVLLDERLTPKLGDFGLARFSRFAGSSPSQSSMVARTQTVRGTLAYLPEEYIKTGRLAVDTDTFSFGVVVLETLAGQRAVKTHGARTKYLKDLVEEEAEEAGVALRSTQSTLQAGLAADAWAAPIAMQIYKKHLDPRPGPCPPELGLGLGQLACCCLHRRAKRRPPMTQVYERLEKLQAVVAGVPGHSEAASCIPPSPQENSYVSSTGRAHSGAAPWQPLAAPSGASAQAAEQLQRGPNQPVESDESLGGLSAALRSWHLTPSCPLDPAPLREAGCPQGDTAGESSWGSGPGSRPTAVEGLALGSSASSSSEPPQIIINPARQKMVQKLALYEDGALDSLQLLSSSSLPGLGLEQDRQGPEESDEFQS

[33] = biological target: Mitogen-activated protein kinase 10 (Homo sapiens) (UniProt P53779); conditions: Compound concentration 100.0 nM
[34] = biological target: Casein kinase II subunit alpha' (Homo sapiens) (UniProt P19784); conditions: Compound concentration 100.0 nM
[35] = biological target: Serine/threonine-protein kinase ULK2 (Homo sapiens) (UniProt Q8IYT8); conditions: Compound concentration 100.0 nM
[36] = biological target: Protein-tyrosine kinase 2-beta (Homo sapiens) (UniProt Q14289); conditions: Compound concentration 100.0 nM
[37] = biological target: Hormonally up-regulated neu tumor-associated kinase (Homo sapiens) (UniProt P57058); conditions: Compound concentration 100.0 nM
Chain of Hormonally up-regulated neu tumor-associated kinase (Homo sapiens) (P57058 whole entry): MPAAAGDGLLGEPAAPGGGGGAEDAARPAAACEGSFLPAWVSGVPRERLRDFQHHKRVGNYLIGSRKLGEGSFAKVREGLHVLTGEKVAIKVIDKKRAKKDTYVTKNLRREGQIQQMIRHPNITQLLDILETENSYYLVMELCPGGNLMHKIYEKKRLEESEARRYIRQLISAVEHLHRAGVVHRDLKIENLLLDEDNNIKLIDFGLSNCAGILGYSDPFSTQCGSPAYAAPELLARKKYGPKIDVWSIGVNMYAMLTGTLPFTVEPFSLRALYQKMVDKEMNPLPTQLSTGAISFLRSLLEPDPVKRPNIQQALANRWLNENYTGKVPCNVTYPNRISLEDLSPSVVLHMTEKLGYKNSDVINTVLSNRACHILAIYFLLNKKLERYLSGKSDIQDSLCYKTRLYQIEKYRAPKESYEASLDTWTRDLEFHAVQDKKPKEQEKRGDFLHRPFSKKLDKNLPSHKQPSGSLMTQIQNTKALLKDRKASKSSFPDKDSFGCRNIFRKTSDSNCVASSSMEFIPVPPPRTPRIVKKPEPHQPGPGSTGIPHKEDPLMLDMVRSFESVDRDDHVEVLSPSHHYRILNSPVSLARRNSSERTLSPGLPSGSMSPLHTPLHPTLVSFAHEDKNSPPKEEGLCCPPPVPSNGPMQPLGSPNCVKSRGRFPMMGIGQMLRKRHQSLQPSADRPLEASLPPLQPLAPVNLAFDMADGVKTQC

[38] = biological target: Dual specificity mitogen-activated protein kinase kinase 7 (Homo sapiens) (UniProt O14733); conditions: Compound concentration 100.0 nM
[39] = biological target: Mitogen-activated protein kinase kinase kinase 1 (Homo sapiens) (UniProt Q13233); conditions: Compound concentration 100.0 nM
[40] = biological target: Protein kinase C iota type (Homo sapiens) (UniProt P41743); conditions: Compound concentration 100.0 nM
Chain of Protein kinase C iota type (Homo sapiens) (P41743 whole entry): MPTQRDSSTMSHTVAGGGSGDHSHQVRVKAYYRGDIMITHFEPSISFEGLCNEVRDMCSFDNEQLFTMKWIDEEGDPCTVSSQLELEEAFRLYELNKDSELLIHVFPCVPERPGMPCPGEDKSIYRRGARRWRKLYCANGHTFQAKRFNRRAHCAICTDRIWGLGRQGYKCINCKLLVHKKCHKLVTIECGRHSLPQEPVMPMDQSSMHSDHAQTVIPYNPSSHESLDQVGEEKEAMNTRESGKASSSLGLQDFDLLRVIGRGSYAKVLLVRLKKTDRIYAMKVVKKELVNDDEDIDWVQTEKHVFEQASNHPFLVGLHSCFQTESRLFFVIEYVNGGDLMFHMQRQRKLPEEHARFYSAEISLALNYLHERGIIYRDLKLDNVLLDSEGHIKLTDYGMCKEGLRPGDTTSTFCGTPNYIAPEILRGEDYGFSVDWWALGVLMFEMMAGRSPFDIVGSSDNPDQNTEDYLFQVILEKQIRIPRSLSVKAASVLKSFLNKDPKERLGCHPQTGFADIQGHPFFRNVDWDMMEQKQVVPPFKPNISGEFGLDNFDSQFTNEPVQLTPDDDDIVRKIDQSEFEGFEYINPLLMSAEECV

[41] = biological target: Mitogen-activated protein kinase kinase kinase 4 (Homo sapiens) (UniProt Q9Y6R4); conditions: Compound concentration 100.0 nM
[42] = biological target: Tyrosine-protein kinase Fer (Homo sapiens) (UniProt P16591); conditions: Compound concentration 100.0 nM
[43] = biological target: Macrophage-stimulating protein receptor (Homo sapiens) (UniProt Q04912); conditions: Compound concentration 100.0 nM
[44] = biological target: 5-hydroxytryptamine receptor 5A (Homo sapiens) (UniProt P47898); conditions: Compound concentration 10.0 uM
[45] = biological target: Serine/threonine-protein kinase Nek3 (Homo sapiens) (UniProt P51956); conditions: Compound concentration 100.0 nM

Nc1c(C(=O)NCc2ccc(C(=O)NCCCC3CCCCC3)cc2)cnn1-c1ccccc1 [SR-318]
inactive: inhibition [1] 10% | residual activity [2] 100% | residual activity [3] 100% | residual activity [4] 96% | residual activity [5] 100% | residual activity [6] 100% | residual activity [7] 100% | residual activity [8] 100% | inhibition [9] -4.14% | inhibition [10] 24.1% | residual activity [11] 96% | residual activity [12] 100% | residual activity [13] 66% | residual activity [14] 100% | residual activity [15] 79% | residual activity [16] 100% | residual activity [17] 100% | residual activity [18] 100% | residual activity [19] 100% | residual activity [20] 100% | residual activity [21] 91% | residual activity [22] 99% | residual activity [23] 95% | residual activity [24] 91% | inhibition [25] 13.2% | residual activity [26] 83% | inhibition [27] 36.9% | residual activity [28] 89% | residual activity [29] 100% | residual activity [30] 100% | residual activity [31] 100% | residual activity [32] 86% | residual activity [33] 100% | residual activity [34] 100% | residual activity [35] 100% | residual activity [36] 99% | residual activity [37] 100% | residual activity [38] 99% | residual activity [39] 96% | residual activity [40] 97% | residual activity [41] 81% | residual activity [42] 90% | residual activity [43] 100% | inhibition [44] 9.6% | residual activity [45] 100%

O=C(NCCCC1CCCCC1)c1ccc(CNC(=O)c2cnn(-c3ccccc3)c2C(F)(F)F)cc1 [SR-321]
inactive: inhibition [1] 6.21% | residual activity [2] 100% | residual activity [3] 100% | residual activity [4] 97% | residual activity [5] 100% | residual activity [6] 100% | residual activity [7] 100% | residual activity [8] 100% | inhibition [9] 20.1% | inhibition [10] 12.9% | residual activity [11] 97% | residual activity [12] 100% | residual activity [13] 100% | residual activity [14] 100% | residual activity [15] 79% | residual activity [16] 86% | residual activity [17] 100% | residual activity [18] 94% | residual activity [19] 100% | residual activity [20] 100% | residual activity [21] 100% | residual activity [22] 100% | residual activity [23] 100% | residual activity [24] 68% | inhibition [25] 25.8% | residual activity [26] 100% | inhibition [27] 17.9% | residual activity [28] 100% | residual activity [29] 79% | residual activity [30] 100% | residual activity [31] 100% | residual activity [32] 100% | residual activity [33] 100% | residual activity [34] 88% | residual activity [35] 100% | residual activity [36] 93% | residual activity [37] 100% | residual activity [38] 100% | residual activity [39] 65% | residual activity [40] 100% | residual activity [41] 100% | residual activity [42] 98% | residual activity [43] 100% | inhibition [44] 17% | residual activity [45] 100%
